The source made the active and inactive calls. The calls are words filed in the database; no cut-off is given here.
Legend:
[1] = target: T1, Phosphatidylinositol 4,5-bisphosphate 3-kinase catalytic subunit delta isoform (Homo sapiens, UniProt O00329); assay: Inhibition of PI3K p110delta (unknown origin) using PIP2 as substrate by ELISA
T1 sequence (O00329 whole entry): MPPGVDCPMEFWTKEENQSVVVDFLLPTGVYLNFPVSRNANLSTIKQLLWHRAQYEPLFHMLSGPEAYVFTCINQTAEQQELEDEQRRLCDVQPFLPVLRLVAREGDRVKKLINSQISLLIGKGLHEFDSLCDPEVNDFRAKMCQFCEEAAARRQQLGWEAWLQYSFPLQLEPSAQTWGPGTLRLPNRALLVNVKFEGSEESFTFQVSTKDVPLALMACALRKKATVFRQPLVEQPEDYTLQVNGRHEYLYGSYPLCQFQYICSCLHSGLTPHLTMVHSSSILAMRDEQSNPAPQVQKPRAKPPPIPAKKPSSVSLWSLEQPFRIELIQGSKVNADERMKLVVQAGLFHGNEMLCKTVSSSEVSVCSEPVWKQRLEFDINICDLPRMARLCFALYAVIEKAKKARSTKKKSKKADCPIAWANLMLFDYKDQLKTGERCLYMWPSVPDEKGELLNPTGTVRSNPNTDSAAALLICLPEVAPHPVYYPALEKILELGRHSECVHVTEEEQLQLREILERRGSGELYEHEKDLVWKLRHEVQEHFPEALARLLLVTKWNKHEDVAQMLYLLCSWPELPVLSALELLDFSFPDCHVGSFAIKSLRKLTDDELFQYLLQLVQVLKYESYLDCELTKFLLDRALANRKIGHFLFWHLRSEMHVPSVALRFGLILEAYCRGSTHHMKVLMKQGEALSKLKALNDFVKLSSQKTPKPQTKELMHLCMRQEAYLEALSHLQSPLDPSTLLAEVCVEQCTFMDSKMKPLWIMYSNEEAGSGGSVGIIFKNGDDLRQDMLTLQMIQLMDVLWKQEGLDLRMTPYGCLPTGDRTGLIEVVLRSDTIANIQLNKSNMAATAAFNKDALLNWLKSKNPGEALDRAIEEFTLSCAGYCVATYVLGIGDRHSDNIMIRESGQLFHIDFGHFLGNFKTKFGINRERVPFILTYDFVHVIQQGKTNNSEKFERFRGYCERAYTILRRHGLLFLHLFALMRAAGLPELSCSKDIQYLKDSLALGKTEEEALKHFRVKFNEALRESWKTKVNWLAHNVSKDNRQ

MCF7 = assay: Cytotoxicity against human MCF7 cells after 72 hrs by SRB assay; format: functional, cell-based; details: MCF7, 72 h
BT-549 [2] = assay: Cell cycle arrest in human BT549 cells assessed as accumulation of cells at G1 phase at 1 uM after 24 hrs by propidium iodide staining-based flow cytometric analysis (reference value: 55.93%); format: functional
[3] = target: Phosphatidylinositol 4,5-bisphosphate 3-kinase catalytic subunit gamma isoform (Homo sapiens, UniProt P48736); assay: Inhibition of PI3K p110gamma (unknown origin) using PIP2 as substrate by ELISA
Chain of Phosphatidylinositol 4,5-bisphosphate 3-kinase catalytic subunit gamma isoform (P48736 whole entry, canonical isoform): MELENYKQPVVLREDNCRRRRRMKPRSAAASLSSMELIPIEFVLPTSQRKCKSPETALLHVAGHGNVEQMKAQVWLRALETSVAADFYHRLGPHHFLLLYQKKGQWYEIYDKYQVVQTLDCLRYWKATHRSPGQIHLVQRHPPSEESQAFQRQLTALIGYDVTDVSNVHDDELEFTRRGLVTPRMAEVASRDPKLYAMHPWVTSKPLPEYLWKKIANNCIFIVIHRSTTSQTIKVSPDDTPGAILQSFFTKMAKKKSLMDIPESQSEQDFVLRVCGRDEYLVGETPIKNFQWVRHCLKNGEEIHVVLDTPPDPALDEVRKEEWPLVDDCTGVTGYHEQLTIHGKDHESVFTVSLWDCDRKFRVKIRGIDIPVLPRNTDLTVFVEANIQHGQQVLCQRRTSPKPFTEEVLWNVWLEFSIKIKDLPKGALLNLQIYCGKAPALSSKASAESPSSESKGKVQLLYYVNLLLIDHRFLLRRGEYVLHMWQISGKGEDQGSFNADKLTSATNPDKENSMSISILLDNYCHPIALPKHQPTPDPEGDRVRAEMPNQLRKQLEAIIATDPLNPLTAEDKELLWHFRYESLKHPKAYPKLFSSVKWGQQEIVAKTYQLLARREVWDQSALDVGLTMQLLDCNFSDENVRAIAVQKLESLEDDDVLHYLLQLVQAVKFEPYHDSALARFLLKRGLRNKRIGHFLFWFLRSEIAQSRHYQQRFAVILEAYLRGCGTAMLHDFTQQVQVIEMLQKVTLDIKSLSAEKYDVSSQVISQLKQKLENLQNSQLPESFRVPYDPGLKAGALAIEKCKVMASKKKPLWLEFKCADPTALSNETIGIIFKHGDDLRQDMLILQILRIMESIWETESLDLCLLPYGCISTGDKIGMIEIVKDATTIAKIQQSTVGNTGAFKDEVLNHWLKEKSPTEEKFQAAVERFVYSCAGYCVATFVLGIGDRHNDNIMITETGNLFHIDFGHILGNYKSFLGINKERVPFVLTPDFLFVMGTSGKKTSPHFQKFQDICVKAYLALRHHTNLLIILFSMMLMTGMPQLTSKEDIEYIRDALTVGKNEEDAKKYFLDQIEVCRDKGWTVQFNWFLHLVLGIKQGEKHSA

Homo sapiens = species on record: Homo sapiens; assay: Inhibition of PI3K in human BT549 cells assessed as decrease in Akt phosphorylation at Ser473 by Western blot analysis; format: cell-based
SK-HEP1 = assay: Cytotoxicity against human SKHEP1 cells after 72 hrs by SRB assay; format: functional, cell-based; details: SK-HEP1, 72 h
BT-549 [4] = assay: Induction of apoptosis in human BT549 cells assessed as nuclear fragmentation at 1 to 5 uM after 24 hrs by DAPI staining-based fluorescence microscopic analysis; format: functional, cell-based
BT-549 [5] = assay: Induction of apoptosis in human BT549 cells assessed as late apoptotic cells at 2.5 uM by Annexin V-FITC/propidium iodide staining-based flow cytometric analysis relative to control; format: functional
BT-549 [6] = assay: Cytotoxicity against human BT549 cells after 72 hrs by SRB assay; format: functional, cell-based; details: BT-549, 72 h
[7] = target: Phosphatidylinositol 4,5-bisphosphate 3-kinase catalytic subunit beta isoform (Homo sapiens, UniProt P42338); assay: Inhibition of PI3K p110beta (unknown origin) using PIP2 as substrate by ELISA
Chain of Phosphatidylinositol 4,5-bisphosphate 3-kinase catalytic subunit beta isoform (P42338 whole entry, canonical isoform): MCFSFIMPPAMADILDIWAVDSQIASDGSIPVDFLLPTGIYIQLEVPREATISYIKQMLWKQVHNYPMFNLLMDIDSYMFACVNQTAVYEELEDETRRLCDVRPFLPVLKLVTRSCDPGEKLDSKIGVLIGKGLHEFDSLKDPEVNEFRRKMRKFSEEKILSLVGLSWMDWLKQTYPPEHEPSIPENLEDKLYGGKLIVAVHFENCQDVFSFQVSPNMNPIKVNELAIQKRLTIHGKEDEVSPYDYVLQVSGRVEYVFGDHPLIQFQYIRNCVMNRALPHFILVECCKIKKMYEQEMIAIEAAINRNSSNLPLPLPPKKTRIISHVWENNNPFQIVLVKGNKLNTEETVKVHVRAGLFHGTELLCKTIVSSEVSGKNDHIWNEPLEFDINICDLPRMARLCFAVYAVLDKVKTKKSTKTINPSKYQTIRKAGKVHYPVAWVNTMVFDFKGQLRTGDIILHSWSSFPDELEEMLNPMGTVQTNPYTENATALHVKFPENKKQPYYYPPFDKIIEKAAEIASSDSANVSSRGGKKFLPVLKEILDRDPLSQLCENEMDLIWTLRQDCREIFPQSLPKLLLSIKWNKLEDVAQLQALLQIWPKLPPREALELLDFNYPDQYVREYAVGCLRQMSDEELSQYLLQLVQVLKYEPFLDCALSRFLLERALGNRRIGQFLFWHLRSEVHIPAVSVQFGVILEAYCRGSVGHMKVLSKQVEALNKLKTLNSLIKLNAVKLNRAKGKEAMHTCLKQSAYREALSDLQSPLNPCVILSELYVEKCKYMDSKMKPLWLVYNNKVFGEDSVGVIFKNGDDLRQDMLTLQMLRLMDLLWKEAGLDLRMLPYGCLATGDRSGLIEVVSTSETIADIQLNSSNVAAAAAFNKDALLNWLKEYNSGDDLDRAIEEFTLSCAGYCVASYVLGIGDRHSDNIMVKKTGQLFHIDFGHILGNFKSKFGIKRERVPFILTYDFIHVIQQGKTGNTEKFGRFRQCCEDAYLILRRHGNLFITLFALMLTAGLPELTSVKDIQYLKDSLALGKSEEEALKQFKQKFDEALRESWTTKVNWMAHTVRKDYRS

BT-549 [8] = assay: Cell cycle arrest in human BT549 cells assessed as accumulation of cells at G1 phase at 5 uM after 24 hrs by propidium iodide staining-based flow cytometric analysis (reference value: 55.93%); format: functional
BT-549 [9] = assay: Inhibition of colony formation in human BT549 cells assessed as colony formation rate at 2.5 uM after 2 weeks by crystal violet staining-based assay relative to control; format: functional; design: scale not given: the % may be the effect or the level left
BT-549 [10] = assay: Cell cycle arrest in human BT549 cells assessed as accumulation of cells at G1 phase at 2.5 uM after 24 hrs by propidium iodide staining-based flow cytometric analysis (reference value: 55.93%); format: functional
BT-549 [11] = assay: Cell cycle arrest in human BT549 cells assessed as accumulation of cells at S phase at 5 uM after 24 hrs by propidium iodide staining-based flow cytometric analysis (reference value: 25.10%); format: functional
BT-549 [12] = assay: Induction of apoptosis in human BT549 cells assessed as early apoptotic cells at 2.5 uM by Annexin V-FITC/propidium iodide staining-based flow cytometric analysis relative to control; format: functional
BT-549 [13] = assay: Induction of apoptosis in human BT549 cells assessed as chromatin condensation at 1 to 5 uM after 24 hrs by DAPI staining-based fluorescence microscopic analysis; format: functional, cell-based
BT-549 [14] = assay: Cell cycle arrest in human BT549 cells assessed as accumulation of cells at G2 phase at 1 uM after 24 hrs by propidium iodide staining-based flow cytometric analysis (reference value: 18.96%); format: functional
BT-549 [15] = assay: Induction of apoptosis in human BT549 cells assessed as early apoptotic cells at 5 uM by Annexin V-FITC/propidium iodide staining-based flow cytometric analysis relative to control; format: functional
BT-549 [16] = assay: Cell cycle arrest in human BT549 cells assessed as accumulation of cells at G1 phase after 24 hrs by propidium iodide staining-based flow cytometric analysis; format: functional
BT-549 [17] = assay: Induction of apoptosis in human BT549 cells assessed as early apoptotic cells at 1 uM by Annexin V-FITC/propidium iodide staining-based flow cytometric analysis relative to control; format: functional
BT-549 [18] = assay: Cell cycle arrest in human BT549 cells assessed as accumulation of cells at S phase at 2.5 uM after 24 hrs by propidium iodide staining-based flow cytometric analysis (reference value: 25.10%); format: functional
BT-549 [19] = assay: Inhibition of colony formation in human BT549 cells after 2 weeks by crystal violet staining-based assay; format: functional, cell-based
[20] = target: Phosphatidylinositol 4,5-bisphosphate 3-kinase catalytic subunit alpha isoform (Homo sapiens, UniProt P42336); assay: Inhibition of PI3K p110alpha (unknown origin) using PIP2 as substrate by ELISA
Chain of Phosphatidylinositol 4,5-bisphosphate 3-kinase catalytic subunit alpha isoform (P42336 whole entry, canonical isoform): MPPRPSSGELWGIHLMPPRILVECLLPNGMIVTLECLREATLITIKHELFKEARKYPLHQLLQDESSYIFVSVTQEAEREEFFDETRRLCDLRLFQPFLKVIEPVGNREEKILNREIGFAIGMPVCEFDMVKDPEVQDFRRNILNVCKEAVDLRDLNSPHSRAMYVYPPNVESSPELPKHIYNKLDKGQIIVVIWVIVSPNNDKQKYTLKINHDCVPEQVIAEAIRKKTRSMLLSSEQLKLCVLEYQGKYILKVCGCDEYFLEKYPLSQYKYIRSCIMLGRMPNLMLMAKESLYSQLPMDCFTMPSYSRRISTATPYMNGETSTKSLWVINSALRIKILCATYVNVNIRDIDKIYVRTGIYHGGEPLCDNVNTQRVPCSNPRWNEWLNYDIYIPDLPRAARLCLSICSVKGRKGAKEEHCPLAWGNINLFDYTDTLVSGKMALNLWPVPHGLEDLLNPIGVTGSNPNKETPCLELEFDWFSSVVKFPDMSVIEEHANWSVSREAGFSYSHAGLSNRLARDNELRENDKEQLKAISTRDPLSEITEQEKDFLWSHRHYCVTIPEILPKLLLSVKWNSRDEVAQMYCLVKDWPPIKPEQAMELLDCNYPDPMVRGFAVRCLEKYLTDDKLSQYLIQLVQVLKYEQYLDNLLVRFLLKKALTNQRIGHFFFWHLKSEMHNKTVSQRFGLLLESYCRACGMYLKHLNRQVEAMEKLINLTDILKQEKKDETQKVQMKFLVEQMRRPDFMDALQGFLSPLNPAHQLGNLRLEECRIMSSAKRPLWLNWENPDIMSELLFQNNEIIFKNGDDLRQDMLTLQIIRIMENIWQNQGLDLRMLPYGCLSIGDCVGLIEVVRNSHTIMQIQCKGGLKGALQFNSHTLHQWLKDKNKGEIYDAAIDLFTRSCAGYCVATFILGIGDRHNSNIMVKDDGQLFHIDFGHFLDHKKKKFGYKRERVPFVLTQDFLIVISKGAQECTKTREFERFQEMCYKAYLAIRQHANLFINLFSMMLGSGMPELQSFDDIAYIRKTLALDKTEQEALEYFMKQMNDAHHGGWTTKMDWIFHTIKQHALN

BT-549 [21] = assay: Cell cycle arrest in human BT549 cells assessed as accumulation of cells at G2 phase at 5 uM after 24 hrs by propidium iodide staining-based flow cytometric analysis (reference value: 18.96%); format: functional
SNU-638 = assay: Cytotoxicity against human SNU638 cells after 72 hrs by SRB assay; format: functional, cell-based; details: SNU-638, 72 h
BT-549 [22] = assay: Cell cycle arrest in human BT549 cells assessed as accumulation of cells at G2 phase at 2.5 uM after 24 hrs by propidium iodide staining-based flow cytometric analysis (reference value: 18.96%); format: functional
A549 = assay: Cytotoxicity against human A549 cells after 72 hrs by SRB assay; format: functional, cell-based; details: A549, 72 h
BT-549 [23] = assay: Cell cycle arrest in human BT549 cells assessed as accumulation of cells at S phase at 1 uM after 24 hrs by propidium iodide staining-based flow cytometric analysis (reference value: 25.10%); format: functional
BT-549 [24] = assay: Inhibition of colony formation in human BT549 cells assessed as colony formation rate at 5 uM after 2 weeks by crystal violet staining-based assay relative to control; format: functional; design: scale not given: the % may be the effect or the level left
BT-549 [25] = assay: Induction of apoptosis in human BT549 cells assessed as late apoptotic cells at 5 uM by Annexin V-FITC/propidium iodide staining-based flow cytometric analysis relative to control; format: functional
HCT-116 = assay: Cytotoxicity against human HCT116 cells after 72 hrs by SRB assay; format: functional, cell-based; details: HCT-116, 72 h
BT-549 [26] = assay: Induction of apoptosis in human BT549 cells assessed as late apoptotic cells at 1 uM by Annexin V-FITC/propidium iodide staining-based flow cytometric analysis relative to control; format: functional

- IC50 [1]: 8.67 µM
- IC50 [3]: 3.56 µM
- IC50 [7]: 9.41 µM
- IC50 [20]: 0.317 µM
SMILES: CCS(=O)(=O)Nc1cc(-c2ccc3ncnc(Nc4ccc(F)c(Cl)c4)c3c2)cnc1OC
- IC50 (MCF7): 5.59 µM
- Activity (BT-549 [2]): 69.31%
- inhibition (Homo sapiens): Dose-dependent effect
- IC50 (SK-HEP1): 6.1 µM
- Activity (BT-549 [4]): Active
- Activity (BT-549 [5]): 2.05%
- IC50 (BT-549 [6]): 1.02 µM
- Activity (BT-549 [8]): 80.7%
- Activity (BT-549 [9]): 55.6%
- Activity (BT-549 [10]): 75.36%
- Activity (BT-549 [11]): 0.92%
- Activity (BT-549 [12]): 56.69%
- Activity (BT-549 [13]): Active
- Activity (BT-549 [14]): 24.16%
- Activity (BT-549 [15]): 54.71%
- Activity (BT-549 [16]): Dose-dependent effect
- Activity (BT-549 [17]): 30.52%
- Activity (BT-549 [18]): 6.86%
- inhibition (BT-549 [19]): Dose-dependent effect
- Activity (BT-549 [21]): 18.37%
- IC50 (SNU-638): 4.1 µM
- Activity (BT-549 [22]): 17.77%
- IC50 (A549): 8.23 µM
- Activity (BT-549 [23]): 6.52%
- Activity (BT-549 [24]): 25.7%
- Activity (BT-549 [25]): 2.27%
- IC50 (HCT-116): 5.6 µM
- Activity (BT-549 [26]): 1.79%
